Our source for the TGI and GI50 values is PubChem BioAssay (NCI).

Among the test systems are UACC-62 melanoma; EKVX NSCLC; UACC-257 melanoma; HCC-2998 colon; OVCAR-8 ovarian; SK-MEL-28 melanoma; SNB-19 CNS; T-47D breast; HOP-62 NSCLC; SK-OV-3 ovarian; CCRF-CEM leukemia.
Holding throughout (assay): growth of human tumour cells (NCI), 48 h

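These data come from cells grown in 96-well plates and exposed to compound for 48 hours at five concentrations. The concentration for 50% growth inhibition is given as GI50. The concentration for full growth arrest is given as TGI.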

Regarding `CO[C@H]1O[C@@H]2CO[C@@H](c3ccccc3)O[C@H]2C[C@]12CCC/C=C\CO2`, the TGI was above 75 µM in the assay on UACC-62 melanoma; 25.8 µM in the assay on EKVX NSCLC; above 75 µM in the assay on UACC-257 melanoma; 54.5 µM in the assay with HCC-2998 colon; 25.2 µM in the assay on OVCAR-8 ovarian; 26.6 µM in the assay on SK-MEL-28 melanoma. For the same compound, the TGI is above 75 µM in the assay on SNB-19 CNS; 59.6 µM in the assay with T-47D breast; 44.4 µM with HOP-62 NSCLC; above 75 µM in the assay on SK-OV-3 ovarian; 36.5 µM with CCRF-CEM leukemia.

Regarding `Fc1ccc(C(OCCN2CCC3CCC(C2)N3Cc2cc3ccccc3[nH]2)c2ccc(F)cc2)cc1` (centres undefined), the TGI with UACC-62 melanoma is 4.46 µM; in the assay with EKVX NSCLC, 3.73 µM; with UACC-257 melanoma it was 3.53 µM; with HCC-2998 colon, 3.06 µM; with OVCAR-8 ovarian it was 3.1 µM; in the assay on SK-MEL-28 melanoma, 3.04 µM. Further, the TGI in the assay with SNB-19 CNS was 7.55 µM; in the assay with T-47D breast, 3.18 µM; in the assay with HOP-62 NSCLC it was 4.54 µM; with SK-OV-3 ovarian it was 5.69 µM; with CCRF-CEM leukemia, 4.69 µM.

For `O=C1c2ccccc2C(=O)N1c1ccc(OCCN2CCCCC2)cc1`, the TGI in the assay with UACC-62 melanoma, in the assay with EKVX NSCLC, with UACC-257 melanoma, in the assay with HCC-2998 colon, in the assay with OVCAR-8 ovarian and in the assay with SK-MEL-28 melanoma was above 100 µM throughout. Also, the TGI with SNB-19 CNS, in the assay with T-47D breast, in the assay on HOP-62 NSCLC, in the assay on SK-OV-3 ovarian and with CCRF-CEM leukemia was above 100 µM in each case.

Turning to `CC(=O)OC[C@@]12C[C@H]3C(=O)C(C)(C)C[C@H]3[C@]1(C)[C@@H](OC(C)=O)[C@]1(O)[C@H]([C@@H](OC(=O)c3ccccc3)[C@@H](C)[C@H]1OC(C)=O)[C@H]2OC(C)=O`, the TGI in the assay with UACC-62 melanoma, with EKVX NSCLC, with UACC-257 melanoma, with HCC-2998 colon, in the assay on OVCAR-8 ovarian and with SNB-19 CNS was above 20 µM in each case. The TGI in the assay on T-47D breast, with HOP-62 NSCLC, in the assay on SK-OV-3 ovarian and in the assay on CCRF-CEM leukemia was above 20 µM each time.

For `CCCCCCCSCC(O)COC(c1ccccc1)(c1ccccc1)c1ccccc1` (centres undefined), the TGI with UACC-62 melanoma, in the assay on EKVX NSCLC, with UACC-257 melanoma, in the assay on HCC-2998 colon, in the assay with OVCAR-8 ovarian and in the assay with SK-MEL-28 melanoma was above 100 µM throughout. For the same compound, the TGI with SNB-19 CNS, in the assay on T-47D breast, in the assay with HOP-62 NSCLC, in the assay with SK-OV-3 ovarian and in the assay on CCRF-CEM leukemia was above 100 µM each time.

Take `O=[N+]([O-])C1(C2([N+](=O)[O-])CCCC2)CCCC1`: the TGI in the assay on UACC-62 melanoma, in the assay with EKVX NSCLC, with UACC-257 melanoma, in the assay with HCC-2998 colon, in the assay with OVCAR-8 ovarian and with SK-MEL-28 melanoma was above 100 µM each time. The TGI in the assay with SNB-19 CNS, with T-47D breast, with SK-OV-3 ovarian and in the assay on CCRF-CEM leukemia was above 100 µM each time.

As to `O=C(CCN1CCCC1)Nc1ccc2c(NCCCc3ccccc3)c3ccccc3nc2c1`, the GI50 is 1.54 µM in the assay on UACC-62 melanoma; 1.21 µM in the assay on EKVX NSCLC; 1.81 µM in the assay on UACC-257 melanoma; 1.14 µM in the assay with HCC-2998 colon; 1.77 µM with SK-MEL-28 melanoma; 0.729 µM with SNB-19 CNS. Also, the GI50 in the assay on T-47D breast is 1.34 µM; with CCRF-CEM leukemia, 0.562 µM. For the same compound, the TGI in the assay with UACC-62 melanoma amounted to 2.93 µM; with EKVX NSCLC, 2.56 µM; in the assay on UACC-257 melanoma, 3.64 µM; in the assay with HCC-2998 colon, 2.43 µM; in the assay on SK-MEL-28 melanoma it was 3.25 µM; in the assay with SNB-19 CNS, 2 µM. Besides, the TGI in the assay with T-47D breast was 3.91 µM; with CCRF-CEM leukemia, 3.03 µM.

Regarding `COc1cc2c(cc1OC)CCN=C2`, the TGI in the assay with UACC-62 melanoma, with UACC-257 melanoma, with HCC-2998 colon, with OVCAR-8 ovarian, with SK-MEL-28 melanoma and in the assay with SNB-19 CNS was above 100 µM each time. Besides, the TGI in the assay with T-47D breast, in the assay with HOP-62 NSCLC, in the assay on SK-OV-3 ovarian and in the assay on CCRF-CEM leukemia was above 100 µM throughout.

Consider `Cc1cc2c(-c3ccccc3)cc(=O)[nH]c2cc1N`, for which the TGI in the assay with UACC-62 melanoma, in the assay with EKVX NSCLC, with UACC-257 melanoma, in the assay on HCC-2998 colon, in the assay on OVCAR-8 ovarian and with SK-MEL-28 melanoma was above 100 µM each time. Besides, the TGI with SNB-19 CNS, with T-47D breast, in the assay with HOP-62 NSCLC and with CCRF-CEM leukemia was above 100 µM each time.

As for `O=C(/C=C/c1ccc(Cl)c(Cl)c1)Oc1ccc(/C=C2\CCCCC2=O)cc1`, the TGI with UACC-62 melanoma, with EKVX NSCLC, in the assay with UACC-257 melanoma, with HCC-2998 colon, with OVCAR-8 ovarian and in the assay on SK-MEL-28 melanoma was above 100 µM in each case. In addition, the TGI in the assay on SNB-19 CNS, with T-47D breast, with HOP-62 NSCLC and with CCRF-CEM leukemia was above 100 µM in each case.

Consider `NC(CCCCNc1ccn(C2OC(CO)C(O)C2O)c(=O)n1)C(=O)O` (centres undefined), for which the TGI with UACC-62 melanoma, in the assay on EKVX NSCLC, in the assay with UACC-257 melanoma, in the assay on HCC-2998 colon, with OVCAR-8 ovarian and in the assay with SK-MEL-28 melanoma was above 100 µM in each case. The TGI with SNB-19 CNS, in the assay on T-47D breast and in the assay with CCRF-CEM leukemia was above 100 µM in each case.

`O=C(NC(Nc1ccc(F)c(Cl)c1)(C(F)(F)F)C(F)(F)F)C(C(F)(F)F)C(F)(F)F`: the TGI with EKVX NSCLC, with UACC-257 melanoma, in the assay with HCC-2998 colon, with OVCAR-8 ovarian, in the assay with SK-MEL-28 melanoma and with SNB-19 CNS was above 100 µM throughout. Also, the TGI is above 100 µM in the assay with T-47D breast, above 100 µM with HOP-62 NSCLC, above 100 µM with SK-OV-3 ovarian and 73.9 µM in the assay on CCRF-CEM leukemia.
